From the METLIN SMRT retention time set (Domingo-Almenara et al. 2019) come the findings set out here.

This data set can be described thus: gradient 5% acetonitrile 3 min, to 50% in 2 min, to 85% in 15 min, held 3 min, 100 µL/min. To be noted: column: Zorbax Extend-C18 2.1 x 50 mm; eluents: water / acetonitrile, 0.1% formic acid. Put shortly:
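A Zorbax Extend-C18 column (2.1 × 50 mm, 1.8 μm) run at 100 μL/min with water and acetonitrile, both containing 0.1% formic acid, separated mixtures of ~100 pure standards. The HPLC was coupled to a quadrupole time-of-flight mass spectrometer operated in positive and negative ionization mode, with dead and dwell volumes of 40 μL and 900 μL. Each retention time was taken from a computationally picked adduct peak that was then manually inspected.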
The compound `Cn1c(=O)c2cc(C(=O)Nc3ccc(F)c(F)c3)cnc2n(-c2ccccc2)c1=O` had an RP-LC retention time of 937 s. In turn, `COc1cc(NC(=O)c2ccc(-n3cnc(NC(=O)C4CC4)c3)cc2)cc(OC)c1` had an RP-LC retention time of 744 s. To `O=C(NCc1ccc2c(c1)OCO2)c1nnc(-c2ccc(S(=O)(=O)N3CCCCC3)cc2)o1` belongs 948 s; to `CCOc1ccc(-c2nc(-c3ccc4c(c3)ncn4CCC(=O)N3CCCC3)no2)cc1`, 825 s; to `Cc1ccn2cc(-c3ccc(NC(=O)/C=C/c4ccccc4)cc3)nc2n1`, 673 s. With `COc1ccccc1NS(=O)(=O)c1cn(CC(C)C)c2ncccc12`, the RP-LC retention time is 979 s. The result for `CN1CC2(CCCC2)N(C(=O)COc2ccc(Cl)cc2)CC1=O` reads 799 s.

Take `CN(C)Cc1nc(-c2cn(C)c3ccccc23)no1`: the RP-LC retention time stood at 684 s.

As to `Cc1ccc(S(=O)(=O)N2C(=O)CCC2C(=O)NC2CCCCCCC2)cc1` (centres undefined), the RP-LC retention time amounted to 1010 s. Compound `CC(C)c1c(C(=O)O)nnn1-c1ccc(F)c(F)c1` yielded an RP-LC retention time of 762 s.

The compound `Cc1ccc(NC(=O)Nc2nccn(-c3ccc(Br)cc3)c2=O)cc1F` had an RP-LC retention time of 1080 s. With `CCOC(=O)C1CCCN(C(=O)CCC2CCCN(c3cc(NC4CC4)ncn3)C2)C1` (centres undefined), the RP-LC retention time turned out to be 666 s. The result for `CC(C)NC(=O)c1ccc(OCC2CCCN2C(=O)c2cccs2)cc1` (centres undefined) reads 818 s; that for `CCOc1ccccc1NC(=O)CSc1nnc(-c2cccnc2)o1`, 730 s. To `Cc1nc(-c2ccc(-c3noc(CNC(=O)Cc4ccc(Cl)cc4)n3)cc2)cs1` belongs 990 s. To `COc1ccc(-c2ccc3nc(N4CCC(C(=O)NC(C)C)CC4)sc3n2)cc1` belongs 926 s; to `Cc1ccc(-c2noc(Cn3ccnc3)n2)cc1C`, 659 s; to `COC(=O)c1ncn2c1C(=O)N(Cc1ccc(C)cc1)C(C)(C(=O)NCc1ccc(C)cc1)C2` (centres undefined), 788 s. Turning to `Cc1ccc(CNC(=O)C2CCCN(c3cnc4nccnc4c3)C2)cc1C` (centres undefined), the RP-LC retention time turned out to be 722 s. The compound `COC(=O)CSc1nnc2c(S(=O)(=O)N3CCN(c4ccc(F)cc4)CC3)cccn12` registered an RP-LC retention time of 825 s.

`COc1ccc(CN2CCc3nc(N4CCN(c5ncccn5)CC4)ncc3C2)cc1` yielded an RP-LC retention time of 584 s. To `Cc1ccnc(N2CCC(C(=O)NCc3ccc(CN4CCCCCC4)o3)CC2)n1` belongs 567 s.

In the case of `Cc1ccc(-c2csc(Cc3nc(-c4ccc(F)cc4)no3)n2)c(C)c1`, the RP-LC retention time worked out at 1070 s. The result for `COCCCn1cnc2c(-c3ccccc3)cn(CC(=O)NCc3ccco3)c2c1=O` reads 802 s; that for `CC(C)n1cc(S(=O)(=O)Nc2cccc(F)c2)c2cccnc21`, 877 s; that for `Cc1ccccc1CN1CCN(CC(=O)NC2CCN(Cc3ccccc3)CC2)C(=O)C1=O`, 633 s. To `Cc1nn(C)c(C)c1CNC(=O)CN1C(=O)C2CCCCN2c2ccc(S(=O)(=O)N(C)C)cc21` (centres undefined) belongs 693 s; to `O=C(NC1CCCN(c2cc(N3CCCC3)ncn2)C1)c1ccoc1` (centres undefined), 671 s; to `Cc1cc(C(=O)Nc2cccc(F)c2)nc2ccnn12`, 889 s.

In the case of `CCOc1ccccc1CNC(=O)CN1CCN(Cc2ccc(F)cc2Cl)C1=O`, the RP-LC retention time is 920 s. To `Cc1cccc(N(C)C(=O)c2cccc(NC(=O)[C@H]3[C@@H]4C[C@@H]5[C@H]3C(=O)O[C@@H]5C4)c2)c1` belongs 782 s; to `Cn1ccc2cc(S(=O)(=O)N3CCC(C(=O)NC4CCN(Cc5ccccc5)CC4)CC3)ccc21`, 666 s. The result for `Cc1ccc(Nc2c(-c3ccc(N(C)C)cc3)nc3ncccn23)cc1` reads 742 s. The result for `CCOC(=O)C1CCN(C(=O)c2cn3c(n2)CCCC3)CC1` reads 586 s; that for `Nc1nc(CN2CCN(c3ncccn3)CC2)nc(N2CCCCC2)n1`, 611 s. `O=C(c1ccsc1)N1CCN(c2cc(-c3cccnc3)[nH]n2)CC1` gave an RP-LC retention time of 584 s. Consider `CCOC(=O)c1cnc(N2CCc3ccccc32)[nH]c1=O`, for which the RP-LC retention time amounted to 632 s. In the case of `COC(=O)c1cnc2nc(C)ccc2c1Nc1ccc(OC)c(OC)c1`, the RP-LC retention time stood at 630 s. On to `O=C(NC1CC1)[C@@H]1C[C@H](Oc2cccnc2)CN1C(=O)Cn1c(=O)oc2ccccc21`, for which the RP-LC retention time was 596 s. The result for `Cc1ccc(-c2ccc(=O)n(Cc3noc(C(=O)N4CCC(C)CC4)n3)n2)cc1C` reads 1050 s; that for `COCCNC(=O)C1CCN(c2cnc(N3CCCCCC3)nc2)CC1`, 617 s; that for `O=C1NC(=O)N2CCSC2(Cc2ccccc2)N1` (centres undefined), 670 s. The compound `CC(=O)Nc1nc(-c2ccc3c(c2)NC(=O)CO3)cs1` had an RP-LC retention time of 633 s. The result for `COc1cc2c(cc1OC)C(C(=O)NCCN1CCOCC1)C(c1cccs1)N(C)C2=O` (centres undefined) reads 604 s; that for `Cc1n[nH]c(C)c1S(=O)(=O)Nc1ccc(CC(=O)NCc2cccs2)cc1`, 640 s; that for `O=S(=O)(c1ccc2nc(N3CCN(c4ccccc4F)CC3)ccc2c1)N1CCCC1`, 998 s. The result for `O=C(CCc1nc2ccccc2s1)N1[C@H]2CC[C@@H]1c1cnc(-c3ccccc3)nc1C2` reads 902 s; that for `CC(C)(C)n1nc2c(c1-n1cccc1)CN(C(=O)C1COc3ccccc3O1)C2` (centres undefined), 1050 s; that for `CC1=NS(=O)(=O)N(Cc2ccccc2)C=C1C(=O)OCc1nc(-c2ccc(F)cc2)no1`, 1140 s. `CC(C)N1C(=O)c2cccnc2Sc2cc(NC(=O)Cc3ccccc3Cl)ccc21` yielded an RP-LC retention time of 906 s. The result for `COCCN1CCC2(CC1)CN(Cc1cc(OC)cc(OC)c1)Cc1ccccc1O2` reads 560 s. The result for `C=CCN1CCc2c(cc(O)c(O)c2Br)[C@@H](c2ccccc2)C1` reads 670 s; that for `Cc1n[nH]c(C)c1CNC(=O)C1Cn2cccc2C(=O)N1C` (centres undefined), 549 s; that for `Cc1nn(-c2ccccc2)c(C)c1S(=O)(=O)N1CCC(C(=O)NCc2ccccc2Cl)CC1`, 963 s. The result for `O=C(CCn1c(=O)oc2ccccc21)N1CC(F)(F)C[C@H]1COc1ccccc1` reads 1000 s. Compound `Cc1oc(-c2[nH]ncc2C(=O)N(C)C)cc1S(=O)(=O)Nc1cccc(Cl)c1C` registered an RP-LC retention time of 725 s. The result for `O=C(c1cnc2n(c1=O)CCS2)N1CCN(c2ccc([N+](=O)[O-])cc2)CC1` reads 635 s; that for `CCCN1CCN(CCNC(=O)CCc2cc3ccc(C)cc3[nH]c2=O)CC1`, 571 s. For `CCCN1C(=O)COc2cc(-c3noc(C(=O)NC(C)CC)n3)ccc21` (centres undefined), the RP-LC retention time amounted to 950 s. To `COc1ccc(Cn2nnc(C(=O)NCC3CC3)c2-n2cccc2)cc1` belongs 924 s; to `Cc1ccc(CNC(=O)C2(C)CCCN(C(=O)NCc3ccccc3)C2)cc1` (centres undefined), 878 s; to `CCOc1ccc(NC(=O)Nc2cccc(-c3ccc(N4CCCCC4)nn3)c2)cc1`, 740 s. On to `O=C(c1ccccc1F)N1CCC2(C1)C(=O)Nc1ccccc12` (centres undefined), for which the RP-LC retention time came out at 662 s. The result for `CC(C)N1CCN(C(=O)c2sc3ncccc3c2-n2cccc2)CC1` reads 597 s.

`COc1ccc(N2CCN(c3cc(SCC(=O)NCc4ccco4)ncn3)CC2)cc1`: the RP-LC retention time was 748 s. The result for `COc1ccc(S(=O)(=O)N2CC(C(=O)NC3CCCCC3)Oc3cc(C)ccc32)cc1` (centres undefined) reads 1170 s; that for `Cc1nc2cccnc2n1C1CCN(C(=O)Nc2ccccc2F)CC1`, 605 s.

Turning to `CCNc1cc(N2CCCC(CCC(=O)Nc3ccc4c(c3)OCCO4)C2)ncn1` (centres undefined), the RP-LC retention time is 674 s. To `O=C1CC(C(=O)N2CCCCCC2)CN1CCc1ccccc1` (centres undefined) belongs 760 s; to `CC(NC(=O)CSc1nnc2c3ccccc3nc(-c3ccco3)n12)c1nc2ccccc2[nH]1` (centres undefined), 638 s. The result for `Cc1ccc(-c2noc(C3CCCN3C(=O)c3cncc(Br)c3)n2)cc1` (centres undefined) reads 961 s. The result for `Cc1cc(NC(=O)C(C)C2CCN(C(=O)Nc3ccc(Cl)cc3)CC2)ccc1F` (centres undefined) reads 952 s; that for `CCN1C(=O)c2ccccc2Oc2ccc(C(=O)NCc3ccc(C)cc3)cc21`, 958 s; that for `Cc1cc2c(c(=O)n(-c3ccc(F)cc3)c(=O)n2CC(=O)Nc2ccc(F)c(Cl)c2)n1C`, 854 s. The compound `CCCN1CCN(C(=O)c2cnn(-c3cc(-c4nc(C(C)(C)C)no4)ccn3)c2C)CC1` yielded an RP-LC retention time of 715 s. To `O=C(C1CCCN(c2ncnc3c2nc2n3CCCCC2)C1)N1CCN(C2CCCCC2)CC1` (centres undefined) belongs 604 s; to `COc1cc(NC(=O)c2c(C)oc3nc(C)nc(N4CCOCC4)c23)cc(OC)c1`, 804 s.

Compound `O=C(Nc1nc2ccc([N+](=O)[O-])cc2s1)c1ccc(Br)s1` showed an RP-LC retention time of 1040 s.

In the case of `CCc1ccc(N2C(C)=NS(=O)(=O)c3cccnc32)cc1`, the RP-LC retention time was 874 s.
